Experimental data reported in publication PMC6201930 (PLoS ONE, 2018).
“And” between values parts separate entries of the source, which are not always exact repeats. Equal values may be shown once. “Also recorded” adds a separate entry of the source.

What was measured:
[1] = Pharmacokinetics of aminoglycosides in the rat; details: sc, 10 mg/kg
Description: Test compounds were dissolved in PBS at 1 mg/mL and administered subcutaneously in a volume of 10 mL/kg to deliver a dose of 10 mg/kg. […] At 24 hours, the rat was euthanized and in addition to blood, quadriceps and kidney tissues were collected for subsequent analysis.
Blood was collected into tubes containing dipotassium ethylenediaminetetraacetic acid (K2 EDTA) as the anticoagulant and rotated at room temperature until the blood was centrifuged and the plasma recovered for subsequent analysis by liquid chromatography with tandem mass spectroscopy (LC-MS/MS). Noncompartmental toxicokinetic parameters were determined using Phoenix WinNonLin version 6.1 (Pharsight Corporation, Carey NC).
The concentrations of test compound in plasma, kidney and muscle were quantified by liquid chromatography-tandem mass spectrometry (LC-MS/MS). Briefly, the plasma and tissue homogenate samples were treated with acetonitrile-methanol mixture containing an internal standard that is a close analog of the test compounds. The treated plasma and […] homogenate samples were centrifuged and the supernatant was collected and analyzed using electro-spray LC-MS/MS.

[2] = test system: tGFP-CFTR542X-HA-HIS construct (codon 542 UGA) in 293H cells; assay: tGFP-542X readthrough assay (HA-HIS MSD immunoassay); type: cell-based, human
[3] = test system: zebrafish neuromasts (hair cells); assay: Neuromast toxicity assay (DASPEI staining); details: read-out: Neuromast CC50; individual determinations (S1 File)
Male Sprague Dawley rats = assay: Fourteen day safety study in rats; type: in vivo; details: for Animals completed study: 6 rats per group; for hematology: numbers of red and white blood cells or platelets vs vehicle: 14 days dosing, all dose groups; for accumulation over time (toxicokinetics): Day 1 and Day 14; for histopathology of liver and bone marrow: end of the 14 day dosing period; for urine lipocalin / urine albumin, clusterin, cystatin C and osteopontin: highest dose groups: G418 20 mg/kg, gentamicin X2 40 mg/kg; for urine albumin, clusterin, cystatin C and osteopontin: normalized to urinary creatinine
Description: To evaluate in vivo safety we administered the compounds daily to rats (n = 6 rats per dose group) by subcutaneous injection for 14 days.
Male Sprague Dawley rats were purchased from Charles River Laboratories, where 6 weeks old at time of study initiation. Rats were group-housed (3 rats per box) in solid bottom cages. Food and water were provided ad libitum. Rats were dosed daily by subcutaneous injection. […] Blood was collected for serum chemistry by retro-orbital bleeds on Day 7 and by terminal cardiac puncture on Day 14. For urine collection, rats were housed in metabolic cages for 6 hours. Toxicokinetics was evaluated on Day 1 and Day 14 (S4 Fig). Blood was obtained by retro-orbital bleeding at 0, 0.25, 0.75, 1.5, 4, 7, 24 hours post-dose. Rats were euthanized on Day 14, 24 hours after the last dose. Body weights were measured on Days 3, 6, 9, 12 and 14. Endpoints to evaluate kidney function included serum chemistry (BUN and creatinine; Day 7 and Day 14), urine biomarkers (albumin, clusterin, cystatin C, osteopontin, KIM1, and alpha GST; Day 6 and Day 9), hematology (Day 14) and histopathology. For histopathology, kidney, liver, and bone marrow were evaluated. Samples collected for histopathology were sectioned at 5 μm, stained with hematoxylin and eosin (H&E), and examined by a board certified veterinary pathologist. BUN, creatine and hematology parameters were measured using a HESKA veterinary system (Loveland, CO). Urine samples were assayed using MSD electrochemiluminescent immunoassay. Samples were analyzed in triplicate using a Sector Imager 6000 instrument (MSD, Rockville, Maryland). Kits used were the Rat Kidney Injury Panel 1 (albumin, Kim-1, NGAL/lipocalin-2, osteopontin), the Argutus Acute Kidney Injury Panel (α-GST, GSTYb1, RPA-1) and the Clusterin Test Kit (MSD), according to the manufacturer’s instructions. Urinary biomarker concentrations were normalized to urinary creatinine to account for differences in urine production and flow rates.

[4] = test system: p53 R213* UGA premature termination codon in HDQ-P1 mammary carcinoma cells; assay: HDQ-p53UGA213 readthrough assay (full-length p53, MSD immunoassay); type: cell-based, human; details: for HDQ-p53UGA213 (Maxfold): maximum readthrough activity above background
Description: We utilized HDQ-P1 mammary carcinoma cells, which are homozygous for R213*, a UGA premature termination codon in the gene for the tumor suppressor protein p53 [30]. […] Western blot hybridization and Meso Scale Discovery (MSD) immunoassay detection of p53 were done as previously described. […] Cells (45K per well) were grown in 96-well plates and treated with compounds for 24 hours. […] Cells were lysed with 60 μl per well of lysis buffer (20 mM Tris-HCL, pH 7.5, 1 mM EGTA, 1 mM EDTA,150 mM Nacl, 0.5% Triton X100) for one hour at room temperature and 30 μl of lysate per well were transferred to the coated plate and incubated overnight at 4 °C. […] Plates were then washed three times with PBS-T and 30 μl of 0.25 μ/ml goat anti-rabbit IgG-Sulfo-tag antibody (MSD) in TBS-C was added and incubated for 1 hour at room temperature. Plates were then washed three times with PBS-T and 150 μl read buffer (MSD) was added. Plates were read immediately in a SECTOR S 600 (MSD).

in vitro = details: mouse
Source text: When considering compounds for potential readthrough therapy it is important to monitor cellular and animal safety. In order to determine the most promising compounds to further evaluate in in vivo safety, we measured cytotoxicity in two different cell types. We used activated human peripheral blood mononuclear cells (PBMCs) (Table 2 and Fig 2D and 2E). PBMCs are a primary cell that when activated with phytohaemagglutinin (PHA) expand quickly and are commonly used as an in vitro surrogate for rapidly growing cells in the human body to evaluate cytotoxicity. Prior to advancing compounds into human studies, safety evaluation in rodents is performed. As an in vitro surrogate for rodent toxicity, we used primary mouse myoblasts.

[5] = AVERAGE (S1 File), unit not given for EC5X
[6] = individual experiments (S1 File)
[7] = individual experiments (S1 File), unit not printed for EC5X (EC2X of the sheet in uM)
[8] = maximum readthrough above background, average ± SD
[9] = 10 mg/kg daily s.c. 14 days, 6 kidneys examined
[10] = 20 mg/kg daily s.c. 14 days, kidneys examined: X2 6, G418 3
[11] = concentration required to double the level of full-length p53 protein, average ± SD, at least three experiments, highest concentration 300 μM
[12] = 40 mg/kg daily s.c. 14 days, 6 kidneys examined, listed as X2
[13] = 40 mg/kg daily s.c. 14 days, 6 kidneys examined, listed as gentamicin X2

CN[C@@H]1[C@@H](O)[C@@H](O[C@@H]2[C@@H](O)[C@H](O[C@H]3O[C@H]([C@@H](C)O)[C@@H](O)[C@H](O)[C@H]3N)[C@@H](N)C[C@H]2N)OC[C@]1(C)O [G418, reference compound]
AUC ([1]; in vivo): 15000 ng·h/mL
AUC(0-t) ([1]; in vivo): 15000 ng·h/mL
Cmax ([1]; in vivo): 7400 ng/mL
Tmax ([1]; in vivo): 0.33 h
half-life ([1]; in vivo): 1.5 h
concentration at 24 h ([1]; in vivo, Kidney levels, 10 mg/kg subcutaneous, 24 hours post-dose, mean ± SD of three rats): 12000 ± 3000 ng/g
concentration at 24 h ([1]; in vivo, levels in the quadriceps, 10 mg/kg subcutaneous, 24 hours after dosing): ~40 ng/g
concentration at 24 h ([1]; in vivo, plasma levels, 10 mg/kg subcutaneous, 24 hours after dosing, at or below lower limit of quantification): ≤ 1 ng/g
tGFP-542X EC2X ([2]; 293H cells, 24 hours, average ± SD): 9 ± 4 µM
tGFP-542X EC2X ([2]; AVERAGE (S1 File)): 9.0 µM
tGFP-542X Maxfold ([2]; AVERAGE (S1 File)): 318.3
tGFP-542X EC5X [2, 5]: 24.8
tGFP-542X EC2X [2, 6]: 8 µM and 15 µM and 5 µM
tGFP-542X Maxfold [2, 6]: 373 and 420 and 226 and 255
tGFP-542X EC5X [2, 7]: 22 and 18 and 33 and 27
tGFP-542X Maxfold [2, 8]: 318 ± 93 fold
CC50 [3]: 3.6 µM
Animals completed study (Male Sprague Dawley rats; 10 mg/kg daily s.c. 14 days): 6
Kidneys: Mineralization (number of kidneys) (Male Sprague Dawley rats; [9]): 1
Kidneys: Pelvic dilation (number of kidneys) (Male Sprague Dawley rats; [9]): 2
Kidneys: Tubular necrosis (number of kidneys) (Male Sprague Dawley rats; [9]): 4
Animals completed study (Male Sprague Dawley rats; 20 mg/kg daily s.c. 14 days): 3
Kidneys: Mineralization (number of kidneys) (Male Sprague Dawley rats; [10]): 0
rats euthanized or found dead (Male Sprague Dawley rats; 20 mg/kg daily s.c., 14 days, 6 rats): three rats were either euthanized or found dead
creatinine and blood urea nitrogen (BUN) levels (Male Sprague Dawley rats; 20 mg/kg, Days 7 and 14, p<0.05 vs vehicle): significantly elevated
hematology: numbers of red and white blood cells or platelets vs vehicle (Male Sprague Dawley rats): no obvious differences across groups
accumulation over time (toxicokinetics) (Male Sprague Dawley rats): no accumulation
urine alpha-GST levels (Male Sprague Dawley rats; G418 20 mg/kg compared to gentamicin X2 40 mg/kg): greatest decrease
histopathology of liver and bone marrow (Male Sprague Dawley rats): No histopathology findings
urine lipocalin (Male Sprague Dawley rats): not affected
urine albumin, clusterin, cystatin C and osteopontin (Male Sprague Dawley rats): increased
HDQ-p53UGA213 EC2X ([4]; AVERAGE (S1 File)): 9.3 µM
HDQ-p53UGA213 max ([4]; AVERAGE (S1 File)): 43.8
HDQ-p53UGA213 EC2X [4, 11]: 9 ± 5 µM
HDQ-p53UGA213 (Maxfold) ([4]; average ± SD): 44 ± 19 fold
CC50 (in vitro; Myoblast (CC50), average ± SD): 166 ± 100 µM
CC50 (in vitro; Myoblast CC50, AVERAGE (S1 File)): 166 µM

CN[C@@H]1[C@@H](O)[C@@H](O[C@@H]2[C@@H](O)[C@H](O[C@H]3O[C@H](CO)[C@@H](O)[C@H](O)[C@H]3N)[C@@H](N)C[C@H]2N)OC[C@]1(C)O (stereo in doubt) [Gentamicin X2, gentamicin X2]
concentration at 24 h ([1]; kidney): 7000 ± 1000 ng/g
AUC ([1]; plasma): 13000 ng·h/mL
AUC(0-t) ([1]; plasma): 13000 ng·h/mL
Cmax ([1]; plasma): 5600 ng/mL
Tmax ([1]; plasma): 0.5 h
concentration at 24 h ([1]; plasma): ≤ 1 ng/g
half-life ([1]; plasma): 2.6 h
concentration at 24 h ([1]; quadriceps): ~40 ng/g
tGFP-542X EC2X ([2]; AVERAGE (S1 File)): 18.6 µM
tGFP-542X Maxfold ([2]; AVERAGE (S1 File)): 135.0
tGFP-542X EC5X [2, 5]: 101.5
tGFP-542X EC2X [2, 6]: 18.5 µM and 10.25 µM and 10.65 µM and 11.55 µM and 13.08 µM and 5.70 µM and 9.22 µM and 17.7 µM and 40.0 µM and 49.3 µM
tGFP-542X Maxfold [2, 6]: 235 and 85
tGFP-542X EC5X [2, 7]: 52 and 120 and 133
tGFP-542X Maxfold [2, 8]: 135 ± 87 fold
CC50 [3]: 8.7 µM and 19 µM
Animals completed study (Male Sprague Dawley rats; 10 mg/kg daily s.c. 14 days): 6
Kidneys: Mineralization (number of kidneys) (Male Sprague Dawley rats; [9]): 0
Kidneys: Pelvic dilation (number of kidneys) (Male Sprague Dawley rats; [9]): 0
Kidneys: Tubular necrosis (number of kidneys) (Male Sprague Dawley rats; [9]): 2
Animals completed study (Male Sprague Dawley rats; 20 mg/kg daily s.c. 14 days): 6
Kidneys: Mineralization (number of kidneys) (Male Sprague Dawley rats; [10]): 0
Kidneys: Pelvic dilation (number of kidneys) (Male Sprague Dawley rats; [10]): 1
Kidneys: Tubular necrosis (number of kidneys) (Male Sprague Dawley rats; [10]): 2
effect on body weight (Male Sprague Dawley rats; 20 mg/kg daily s.c., 14 days): did not affect body weight
Animals completed study (Male Sprague Dawley rats; 40 mg/kg daily s.c. 14 days): 6
Kidneys: Mineralization (number of kidneys) (Male Sprague Dawley rats; 40 mg/kg daily s.c. 14 days, 6 kidneys examined): 0
Kidneys: Pelvic dilation (number of kidneys) (Male Sprague Dawley rats; [12]): 4
Kidneys: Tubular necrosis (number of kidneys) (Male Sprague Dawley rats; [12]): 4
Kidneys: Pelvic dilation (number of kidneys) (Male Sprague Dawley rats; [13]): four of six kidneys
Kidneys: Tubular necrosis (number of kidneys) (Male Sprague Dawley rats; [13]): four of six kidneys
effect on body weight (Male Sprague Dawley rats; 40 mg/kg daily s.c., 14 days): only slightly reduced body weight
hematology: numbers of red and white blood cells or platelets vs vehicle (Male Sprague Dawley rats): no change; also recorded: no obvious differences across groups
accumulation over time (toxicokinetics) (Male Sprague Dawley rats): no accumulation
tolerability (Male Sprague Dawley rats; all dose levels, 14 days daily s.c.): well-tolerated at all dose levels
rats found dead or euthanized (Male Sprague Dawley rats; any of the three dose groups (10, 20, 40 mg/kg), 14 days): No rats were found dead or euthanized
histopathology of liver and bone marrow (Male Sprague Dawley rats): No histopathology findings
urine lipocalin (Male Sprague Dawley rats): not affected
urine albumin, clusterin, cystatin C and osteopontin (Male Sprague Dawley rats): not increased
HDQ-p53UGA213 EC2X ([4]; AVERAGE (S1 File)): 18.6 µM
HDQ-p53UGA213 max ([4]; AVERAGE (S1 File)): 39.1
HDQ-p53UGA213 EC2X [4, 11]: 19 ± 6 µM
HDQ-p53UGA213 EC2X [4, 6]: 19.47 µM and 16.13 µM and 19.14 µM and 12.27 µM and 19.04 µM and 21.26 µM and 22.25 µM and 17.98 µM and 6.97 µM and 32.75 µM and 17.45 µM and 17.38 µM and 19.08 µM
HDQ-p53UGA213 max ([4]; individual experiments (S1 File), max fold): 23.4 and 60.4 and 40.4 and 95 and 8.4 and 8 and 12.7 and 10.6 and 84.8 and 5.1 and 37.4 and 60.1 and 62.2
HDQ-p53UGA213 (Maxfold) ([4]; average ± SD): 39 ± 31 fold
CC50 (in vitro; primary mouse myoblasts, Myoblast (CC50), average ± SD): 834 ± 623 µM
CC50 (in vitro; primary mouse myoblasts, Myoblast CC50, AVERAGE (S1 File)): 834 µM
